Assays:
[1] = tested on: Pseudomonas aeruginosa 13388; experiment: High resolution minimum inhibitory concentration (HRMIC) test, Gram-negative bacterium; type: cell-based; details: for Activity against Gram-negative test organism (in words): HRMIC test; for MIC: M9GY, 10^6 CFU/ml, 30° C., 24 hours, read-out: MIC (ppm) Average, Gram-negative
Description: (§1) The five alkylation products from Route B, as described in Table 1, were tested for their ability to inhibit the growth of a Gram-positive bacterium, Staphylococcus aureus 6538 and a Gram-negative bacterium, Pseudomonas aeruginosa 13388 in a high resolution minimum inhibitory concentration (HRMIC) test. Two of the compounds showing biological activity were also tested for activity against sulfate-reducing bacteria (SRB). HR MIC Test Method: Varying amounts of test compound dissolved in DMSO were added to […] in a 96-well microtiter plate. Ten-fold serial dilutions were performed on a Biomek 2000 Workstation to obtain a range of closely spaced concentrations of biocide as illustrated in Table 2. A cell suspension of either Pseudomonas aeruginosa 13388 or Staphylococcus aureus 6538, adjusted to provide 10^6 CFU/ml in each well, was added to each microtiter plate. Kathon® WT biocide and Hyamine® 3500 biocide (dimethyl benzyl ammonium chloride) were included in the test for comparison. The microtiter plates were incubated at 30° C. for 24 hours and were then checked for the presence or absence of microbial growth in each well. […] Each compound was evaluated in duplicate on three separate days. [table]

[2] = tested on: Staphylococcus aureus 6538; experiment: High resolution minimum inhibitory concentration (HRMIC) test, Gram-positive bacterium; type: cell-based; details: for Activity against Gram-positive test organism (in words): HRMIC test; for MIC: M9GY, 10^6 CFU/ml, 30° C., 24 hours, read-out: MIC (ppm) Average, Gram-positive
Description: as §1

| MIC [1] | MIC [2] | Structure (SMILES) | Activity against Gram-negative test organism (in words) [1] | Activity against Gram-positive test organism (in words) [2] |
| --- | --- | --- | --- | --- |
| > 1000 µg/mL | > 1000 µg/mL | CC(C)(C)CC(C)(C)[N+](C)(C)C.[Br-] [TOA Br^−, N,N,N-Trimethyl t-octyl ammonium bromide] | showed no activity | showed no activity |
| > 1000 µg/mL | > 1000 µg/mL | CC(C)(C)CC(C)(C)[N+](C)(C)C.[I-] [TOA I^−, N,N,N-Trimethyl t-octylammonium iodide] | showed no activity | showed no activity |

Source: patent publication US6727387B2, “Quaternary ammonium salts having a tertiary alkyl group” (Rohm and Haas Company, priority 2001, dated 2004)
